From ChEMBL document CHEMBL1121555, “Quantitative structure-selectivity relationships. Comparison of the inhibition of Escherichia coli and bovine liver dihydrofolate reductase by 5-(substituted-benzyl)-2,4-diaminopyrimidines” (J Med Chem, 1980)

Assay: Compound was evaluated for the partition coefficients probably at the pH >> 7.2 at the aqueous phase 0.1 N NaOH
Settings: 0.1 N NaOH (aqueous phase)

logD | Compound
1.58 | Nc1ncc(Cc2ccccc2)c(N)n1

Assay: Compound was evaluated for the partition coefficients probably at the […] at the aqueous phase 0.1 N HCl
Format: physicochemical
Settings: 0.1 N HCl (aqueous phase)

logD | Compound
-1.94 | CC(=O)Nc1ccc(Cc2cnc(N)nc2N)cc1
-1.03 | Nc1ncc(Cc2ccc([N+](=O)[O-])cc2)c(N)n1
-0.8 | Nc1ncc(Cc2cccc(F)c2)c(N)n1
-0.92 | COc1cccc(Cc2cnc(N)nc2N)c1
-1.03 | Nc1ncc(Cc2ccccc2)c(N)n1
0.53 | Nc1ncc(Cc2cccc(OCc3ccccc3)c2)c(N)n1
-0.51 | Cc1cccc(Cc2cnc(N)nc2N)c1
-0.36 | Nc1ncc(Cc2cccc(Cl)c2)c(N)n1
